This note sets out measurements from patent US20240109864A1, “SUBSTITUTED PYRAZOLYL PIPERIDINE CARBOXYLIC ACIDS” (BAYER AKTIENGESELLSCHAFT, priority 2020, published 2024).

This assay deals with T1, recombinant guanylate cyclase reporter cell line (Rattus norvegicus, UniProt P20595).
T1 construct: expressed in transfected cells
T1 sequence (P20595 1-619): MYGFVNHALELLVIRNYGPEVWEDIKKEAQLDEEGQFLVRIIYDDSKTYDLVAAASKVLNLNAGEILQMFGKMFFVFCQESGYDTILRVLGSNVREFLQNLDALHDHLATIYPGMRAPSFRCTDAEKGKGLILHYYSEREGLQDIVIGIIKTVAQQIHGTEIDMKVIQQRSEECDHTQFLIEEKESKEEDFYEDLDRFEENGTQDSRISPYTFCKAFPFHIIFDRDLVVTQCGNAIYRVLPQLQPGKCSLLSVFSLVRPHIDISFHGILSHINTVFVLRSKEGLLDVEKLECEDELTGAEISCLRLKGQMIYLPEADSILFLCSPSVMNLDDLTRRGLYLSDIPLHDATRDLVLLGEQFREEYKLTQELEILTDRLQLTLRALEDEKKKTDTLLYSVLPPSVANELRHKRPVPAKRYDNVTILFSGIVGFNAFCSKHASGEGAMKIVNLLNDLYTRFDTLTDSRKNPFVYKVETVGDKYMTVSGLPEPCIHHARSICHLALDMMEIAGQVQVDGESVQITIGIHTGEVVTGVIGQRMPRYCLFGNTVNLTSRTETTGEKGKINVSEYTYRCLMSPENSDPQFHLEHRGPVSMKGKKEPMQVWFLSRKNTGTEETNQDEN
T1 sequence (P19686 1-690 partner): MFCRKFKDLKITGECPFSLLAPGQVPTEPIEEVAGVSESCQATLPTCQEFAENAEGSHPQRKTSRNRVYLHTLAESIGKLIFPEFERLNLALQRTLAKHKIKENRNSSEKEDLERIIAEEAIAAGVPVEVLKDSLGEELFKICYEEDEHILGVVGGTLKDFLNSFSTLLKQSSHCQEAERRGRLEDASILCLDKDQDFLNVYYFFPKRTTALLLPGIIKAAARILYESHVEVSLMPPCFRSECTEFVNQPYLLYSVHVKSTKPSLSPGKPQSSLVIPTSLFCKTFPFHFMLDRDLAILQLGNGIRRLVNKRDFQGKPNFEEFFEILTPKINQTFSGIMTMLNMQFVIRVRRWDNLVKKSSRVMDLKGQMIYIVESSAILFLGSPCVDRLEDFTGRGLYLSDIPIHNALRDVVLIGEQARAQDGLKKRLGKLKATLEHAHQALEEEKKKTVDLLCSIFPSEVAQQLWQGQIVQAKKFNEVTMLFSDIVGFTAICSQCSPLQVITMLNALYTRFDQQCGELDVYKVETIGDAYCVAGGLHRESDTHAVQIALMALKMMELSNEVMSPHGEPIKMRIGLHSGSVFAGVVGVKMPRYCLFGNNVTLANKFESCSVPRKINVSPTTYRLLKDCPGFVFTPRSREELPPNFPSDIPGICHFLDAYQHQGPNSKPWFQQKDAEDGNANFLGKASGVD
The experiment in a line: Effect on a recombinant guanylate cyclase reporter cell line. The settings on record: in some cases mean values from individual determinations; for MEC: MEC = minimum effective concentration; for EC50: half maximal effective concentration. In kind it is cell-based. The procedure: The cellular activity of the compounds according to the invention was determined using a recombinant guanylate cyclase reporter cell line, as described in F. Wunder et al., Anal. Biochem. 339, 104-112 (2005).

Where a name gives a salt, the structure may show the parent alone.

With `O=C(O)c1cnn(C2CCCN(c3cc(Cl)ccc3-c3ccc(N4CCN(CCC(F)(F)F)CC4)cc3)C2)c1C(F)(F)F` (single isomer, unassigned) [Example 17, 1-[1-[5-Chloro-2-[4-[4-(3,3,3-trifluoropropyl)piperazin-1-yl]phenyl]phenyl]-3-piperidyl]-5-(trifluoromethyl)pyrazole-4-carboxylic acid hydrochloride], the MEC is less than 0.3 nM and the EC50 is 1.4 nM.

In the case of `CC(C)(C)CN1CCN(c2ccc(-c3ccc(Cl)cc3N3CCCC(n4ncc(C(=O)O)c4C(F)(F)F)C3)cc2)CC1` (single isomer, unassigned) [Example 18, 1-[1-[5-Chloro-2-[4-[4-(2,2-dimethylpropyl)piperazin-1-yl]phenyl]phenyl]-3-piperidyl]-5-(trifluoromethyl)pyrazole-4-carboxylic acid hydrochloride], the MEC is given as 10.0 nM and the EC50 was found to be 63.5 nM.

`O=C(O)c1cnn(C2CCCN(c3cc(Cl)ccc3-c3ccc(N4CCN(CC5CCC5)CC4)cc3)C2)c1C(F)(F)F` (single isomer, unassigned) [Example 19, 1-[1-[5-Chloro-2-[4-[4-(cyclobutylmethyl)piperazin-1-yl]phenyl]phenyl]-3-piperidyl]-5-(trifluoromethyl)pyrazole-4-carboxylic acid hydrochloride]: the MEC was 3.0 nM and the EC50 was found to be 26.5 nM.

For `O=C(O)c1cnn(C2CCCN(c3cc(Cl)ccc3-c3ccc(N4CCN(CC5CC(F)(F)C5)CC4)cc3)C2)c1C(F)(F)F` (single isomer, unassigned) [Example 20, 1-[1-[5-Chloro-2-[4-[4-[(3,3-difluorocyclobutyl)methyl]piperazin-1-yl]phenyl]phenyl]-3-piperidyl]-5-(trifluoromethyl)pyrazole-4-carboxylic acid hydrochloride], the EC50 worked out at 3.6 nM. Besides, the MEC (hydrochloride) turned out to be 1.0 nM.

Turning to `O=C(O)c1cnn(C2CCCN(c3cc(Cl)ccc3-c3ccc(N4CCN(CC5CC(F)(F)C5)CC4)cc3)C2)c1C(F)(F)F` (single isomer, unassigned) [Example 21, 1-[1-[5-Chloro-2-[4-[4-[(3,3-difluorocyclobutyl)methyl]piperazin-1-yl]phenyl]phenyl]-3-piperidyl]-5-(trifluoromethyl)pyrazole-4-carboxylic acid hydrochloride], the concentration giving a half-maximal response (EC50) is 27 nM. The MEC (hydrochloride) is 3.0 nM.

For `O=C(O)c1cnn(C2CCCN(c3cc(Cl)ccc3-c3ccc(N4CCN(CC5CC(F)C5)CC4)cc3)C2)c1C(F)(F)F` (single isomer, unassigned) [Example 22, 1-[1-[5-Chloro-2-[4-[4-[(3-fluorocyclobutyl)methyl]piperazin-1-yl]phenyl]phenyl]-3-piperidyl]-5-(trifluoromethyl)pyrazole-4-carboxylic acid hydrochloride], the MEC came out at 2.0 nM and the concentration giving a half-maximal response (EC50) was 11.4 nM.

As for `O=C(O)c1cnn(C2CCCN(c3cc(Cl)ccc3-c3ccc(N4CCN(CC5(F)CCC5)CC4)cc3)C2)c1C(F)(F)F` (single isomer, unassigned) [Example 23, 1-[1-[5-Chloro-2-[4-[4-[(1-fluorocyclobutyl)methyl]piperazin-1-yl]phenyl]phenyl]-3-piperidyl]-5-(trifluoromethyl)pyrazole-4-carboxylic acid hydrochloride], the MEC turned out to be 3.0 nM and the EC50 came out at 27.5 nM.

In the case of `O=C(O)c1cnn(C2CCCN(c3cc(Cl)ccc3-c3ccc(N4CCN(CC56CC(F)(C5)C6)CC4)cc3)C2)c1C(F)(F)F` (single isomer, unassigned) [Example 24, 1-[1-[5-Chloro-2-[4-[4-[(3-fluoro-1-bicyclo[1.1.1]pentanyl)methyl]piperazin-1-yl]phenyl]phenyl]-3-piperidyl]-5-(trifluoromethyl)pyrazole-4-carboxylic acid hydrochloride], the MEC was determined as 3.0 nM and the EC50 is 12.7 nM.

For `O=C(O)c1cnn(C2CCCN(c3cc(Cl)ccc3-c3ccc(N4CCN(CC5CC5F)CC4)cc3)C2)c1C(F)(F)F` (single isomer, unassigned) [Example 25, 1-[1-[5-Chloro-2-[4-[4-[[2-fluorocyclopropyl]methyl]piperazin-1-yl]phenyl]phenyl]-3-piperidyl]-5-(trifluoromethyl)pyrazole-4-carboxylic acid hydrochloride], the EC50 was 22 nM. For the same compound, the MEC (hydrochloride) was found to be 10.0 nM.

As for `O=C(O)c1cnn(C2CCCN(c3cc(Cl)ccc3-c3ccc(N4CCN(CC5CC5F)CC4)cc3)C2)c1C(F)(F)F` (single isomer, unassigned) [Example 26, 1-[1-[5-Chloro-2-[4-[4-[[2-trans-fluorocyclopropyl]methyl]piperazin-1-yl]phenyl]phenyl]-3-piperidyl]-5-(trifluoromethyl)pyrazole-4-carboxylic acid hydrochloride], the concentration giving a half-maximal response (EC50) came out at 5.2 nM. Besides, the MEC (hydrochloride) amounted to 1.0 nM.

With `O=C(O)c1cnn(C2CCCN(c3cc(Cl)ccc3-c3ccc(N4CCN(CC5C[C@@H]5F)CC4)cc3)C2)c1C(F)(F)F` (single isomer, unassigned) [Example 27, 1-[1-[5-Chloro-2-[4-[4-[[2-fluorocyclopropyl]methyl]piperazin-1-yl]phenyl]phenyl]-3-piperidyl]-5-(trifluoromethyl)pyrazole-4-carboxylic acid hydrochloride], the MEC came to 3.0 nM and the EC50 was 15 nM.

With `O=C(O)c1cnn(C2CCCN(c3cc(Cl)ccc3-c3ccc(N4CCN(C[C@@H]5C[C@@H]5F)CC4)cc3)C2)c1C(F)(F)F` (single isomer, unassigned) [Example 28, hydrochloride], the EC50 stood at 5.5 nM. Moreover, under “hydrochloride”, the MEC came out at 3.0 nM.

With `O=C(O)c1cnn(C2CCCN(c3cc(Cl)ccc3-c3ccc(N4CCN(C[C@H]5C[C@H]5F)CC4)cc3)C2)c1C(F)(F)F` (single isomer, unassigned) [Example 29, hydrochloride], the MEC is listed as 0.3 nM and the EC50 was 6.9 nM.

Turning to `O=C(O)c1cnn(C2CCCN(c3cc(Cl)ccc3-c3ccc(N4CCN(CC5CC56CC6)CC4)cc3)C2)c1C(F)(F)F` (single isomer, unassigned) [Example 30, 1-[1-[5-Chloro-2-[4-[4-(spiro[2.2]pentan-2-ylmethyl)piperazin-1-yl]phenyl]phenyl]-3-piperidyl]-5-(trifluoromethyl)pyrazole-4-carboxylic acid hydrochloride], the MEC turned out to be 3.0 nM and the concentration for a half-maximal effect (EC50) came out at 8.9 nM.

Consider `O=C(O)c1cnn(C2CCCN(c3cc(Cl)ccc3-c3ccc(N4CCN(CC5CC5C(F)(F)F)CC4)cc3)C2)c1C(F)(F)F` (single isomer, unassigned) [Example 32, 1-[1-[5-Chloro-2-[4-[4-[[2-(trifluoromethyl)cyclopropyl]methyl]piperazin-1-yl]phenyl]phenyl]-3-piperidyl]-5-(trifluoromethyl)pyrazole-4-carboxylic acid hydrochloride], for which the EC50 was found to be 9.3 nM. The MEC (hydrochloride) was 3.0 nM.

Consider `O=C(O)c1cnn(C2CCCN(c3cc(Cl)ccc3-c3ccc(N4CCN(CC5CC5C(F)(F)F)CC4)cc3)C2)c1C(F)(F)F` (single isomer, unassigned) [Example 33, 1-[1-[5-Chloro-2-[4-[4-[[2-(trifluoromethyl)cyclopropyl]methyl]piperazin-1-yl]phenyl]phenyl]-3-piperidyl]-5-(trifluoromethyl)pyrazole-4-carboxylic acid hydrochloride], for which the EC50 is 37.5 nM. Also, the MEC (hydrochloride) was found to be 10.0 nM.

For `O=C(O)c1cnn(C2CCCN(c3cc(Cl)ccc3-c3ccc(N4CCN(CC5(C(F)(F)F)CC5)CC4)cc3)C2)c1C(F)(F)F` (single isomer, unassigned) [Example 34, 1-[1-[5-Chloro-2-[4-[4-[[1-(trifluoromethyl)cyclopropyl]methyl]piperazin-1-yl]phenyl]phenyl]-3-piperidyl]-5-(trifluoromethyl)pyrazole-4-carboxylic acid hydrochloride], the MEC is 10.0 nM and the EC50 was 40.5 nM.

For orientation: EC50 means the concentration that produces a half-maximal response.
